Source: PubChem BioAssay AID248 (DTP/NCI, 2004)
Several values for one entry are separate records, joined by “and”; a condition that tells them apart may be missing. Equal entries are not always repeated. Toxic doses and inconclusive results are not listed. Cut-off read from the data, not from the text of the source: active = T/C of 150% or more; inactive = T/C below 125%.

Test system: L1210 leukemia ip in BDF1 mice, survival T/C
Experiment: NCI In Vivo Anticancer Drug Screen. Data for tumor model L1210 Leukemia (intraperitoneal) in B6D2F1 (BDF1) mice
Conditions: endpoint: mean survival time, higher = longer survival
Method in brief: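 Mice bearing the transplanted tumor received compound or vehicle. Survival of the treated group was divided by that of the vehicle-treated control group to give the ratio.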

[1] = dose: 100.0 mg/kg/injection, schedule: Q01DX009 (ip), vehicle: saline
[2] = dose: 100.0 mg/kg/injection, schedule: Q01DX001 (ip), vehicle: carboxymethylcellulose (CMC)
[3] = dose: 200.0 mg/kg/injection, schedule: Q01DX001 (ip), vehicle: carboxymethylcellulose (CMC)
[4] = dose: 400.0 mg/kg/injection, schedule: Q01DX001 (ip), vehicle: carboxymethylcellulose (CMC)
[5] = dose: 100.0 mg/kg/injection, schedule: Q04DX003 (ip), vehicle: saline
[6] = dose: 100.0 mg/kg/injection, schedule: Q01DX001 (ip), vehicle: saline
[7] = dose: 200.0 mg/kg/injection, schedule: Q01DX001 (ip), vehicle: saline
[8] = dose: 100.0 mg/kg/injection, schedule: Q04DX003 (ip), vehicle: Klucel (hydroxypropylcellulose) (HPC)
[9] = dose: 200.0 mg/kg/injection, schedule: Q04DX003 (ip), vehicle: Klucel (hydroxypropylcellulose) (HPC)
[10] = dose: 400.0 mg/kg/injection, schedule: Q04DX003 (ip), vehicle: Klucel (hydroxypropylcellulose) (HPC)
[11] = dose: 100.0 mg/kg/injection, schedule: Q01DX009 (ip), vehicle: saline with Tween-80
[12] = dose: 100.0 mg/kg/injection, schedule: Q04DX003 (ip), vehicle: saline with Tween-80
[13] = dose: 200.0 mg/kg/injection, schedule: Q01DX009 (ip), vehicle: saline with Tween-80
[14] = dose: 200.0 mg/kg/injection, schedule: Q04DX003 (ip), vehicle: saline with Tween-80
[15] = dose: 400.0 mg/kg/injection, schedule: Q04DX003 (ip), vehicle: saline with Tween-80
[16] = dose: 50.0 mg/kg/injection, schedule: Q01DX009 (ip), vehicle: Klucel (hydroxypropylcellulose) (HPC)
[17] = dose: 100.0 mg/kg/injection, schedule: Q01DX009 (ip), vehicle: Klucel (hydroxypropylcellulose) (HPC)
[18] = dose: 200.0 mg/kg/injection, schedule: Q01DX009 (ip), vehicle: Klucel (hydroxypropylcellulose) (HPC)

Measured: T/C

CCCCCC/C=C\[N+](=O)[O-]
inactive: dose: 50.0 mg/kg/injection, schedule: Q01DX001 (ip), vehicle: saline with Tween-80 109 % of control

NC(=O)N/N=C(\CBr)c1ccc(Br)cc1
inactive: [1] 93 % of control

O=C(NCc1ccccc1)C(Cc1ccccc1)(Cc1ccccc1)C(=O)NCc1ccccc1
inactive: [2] 92 % of control | [3] 90 % of control | [4] 92 % of control

Clc1ccc2c(c1)N(C1CCCN(Cc3ccccc3)C1)c1ccccc1S2 (centres undefined)
inactive: [2] 94 % of control | [3] 94 % of control | [4] 90 % of control

CN(CCC#N)CCC#N
inactive: [5] 109 % of control | dose: 200.0 mg/kg/injection, schedule: Q04DX003 (ip), vehicle: saline 94 % of control | dose: 400.0 mg/kg/injection, schedule: Q04DX003 (ip), vehicle: saline 101 % of control

CC(C)(C)c1cc([N+](C)(C)C)cc(C(C)(C)C)n1
inactive: dose: 6.25 mg/kg/injection, schedule: Q01DX001 (ip), vehicle: saline 97 % of control | dose: 12.5 mg/kg/injection, schedule: Q01DX001 (ip), vehicle: saline 112 % of control | dose: 25.0 mg/kg/injection, schedule: Q01DX001 (ip), vehicle: saline 105 % of control

Cc1cccc(C)c1N=C(N)NN
inactive: dose: 25.0 mg/kg/injection, schedule: Q01DX009 (ip), vehicle: saline 100 % of control | dose: 50.0 mg/kg/injection, schedule: Q01DX009 (ip), vehicle: saline 101 % of control | dose: 50.0 mg/kg/injection, schedule: Q04DX003 (ip), vehicle: saline 117 % of control | [6] 96 % of control | [1] 95 % of control | [5] 106 % of control | [7] 98 % of control

COc1ccc(NC(Nc2ccc(OC)cc2)C(Cl)(Cl)Cl)cc1
inactive: dose: 100.0 mg/kg/injection, schedule: Q01DX009 (ip), vehicle: other 90 % of control | dose: 100.0 mg/kg/injection, schedule: Q04DX003 (ip), vehicle: other 87 % of control | dose: 200.0 mg/kg/injection, schedule: Q01DX009 (ip), vehicle: other 93 % of control | dose: 200.0 mg/kg/injection, schedule: Q04DX003 (ip), vehicle: other 97 % of control | dose: 400.0 mg/kg/injection, schedule: Q01DX009 (ip), vehicle: other 123 % of control | dose: 400.0 mg/kg/injection, schedule: Q04DX003 (ip), vehicle: other 114 % of control

CCC[CH2][Sn]([CH2]CC#N)([CH2]CCC)[CH2]CCC
inactive: dose: 25.0 mg/kg/injection, schedule: Q04DX002 (ip), vehicle: saline 97 % of control | dose: 50.0 mg/kg/injection, schedule: Q04DX002 (ip), vehicle: saline 94 % of control

Cc1cc(Oc2nccnc2C)cc(C)c1N(C)C
inactive: [8] 101 % of control | [9] 94 % of control | [10] 94 % of control

CC(C)(C)CC(CC(C)(C)C)C(=O)O
inactive: dose: 106.0 mg/kg/injection, schedule: Q01DX Z (ip), vehicle: other 94 % of control | dose: 160.0 mg/kg/injection, schedule: Q01DX Z (ip), vehicle: other 102 % of control | dose: 240.0 mg/kg/injection, schedule: Q01DX Z (ip), vehicle: other 96 % of control and 103 % of control | dose: 360.0 mg/kg/injection, schedule: Q01DX Z (ip), vehicle: other 101 % of control and 89 % of control | dose: 540.0 mg/kg/injection, schedule: Q01DX Z (ip), vehicle: other 86 % of control

CCOC(=O)CCSC
inactive: dose: 50.0 mg/kg/injection, schedule: Q01DX009 (ip), vehicle: saline with Tween-80 100 % of control | [11] 97 % of control | [12] 93 % of control | [13] 92 % of control | [14] 96 % of control

Cc1nc(N)[nH]c(=O)c1/C=C\C(=O)c1ccccc1
inactive: dose: 30.0 mg/kg/injection, schedule: Q01DX Z (ip), vehicle: carboxymethylcellulose (CMC) 96 % of control | dose: 60.0 mg/kg/injection, schedule: Q01DX Z (ip), vehicle: carboxymethylcellulose (CMC) 96 % of control | [2] 95 % of control | dose: 120.0 mg/kg/injection, schedule: Q01DX Z (ip), vehicle: carboxymethylcellulose (CMC) 87 % of control | [3] 89 % of control | dose: 240.0 mg/kg/injection, schedule: Q01DX Z (ip), vehicle: carboxymethylcellulose (CMC) 90 % of control | [4] 93 % of control

COc1ccc2nc(N=Nc3c(N)nc(N)nc3N)sc2c1
inactive: [6] 96 % of control | [7] 105 % of control

Cc1cc(CC(Cl)(C(F)(F)F)C(F)(F)F)cc(CC(Cl)(C(F)(F)F)C(F)(F)F)n1
inactive: dose: 12.5 mg/kg/injection, schedule: Q01DX009 (ip), vehicle: saline with Tween-80 108 % of control | dose: 25.0 mg/kg/injection, schedule: Q01DX009 (ip), vehicle: saline with Tween-80 106 % of control

O=[N+]([O-])c1ccc(N=Cc2ccccc2O)c(O)c1
inactive: [2] 95 % of control | [3] 104 % of control | [4] 94 % of control

CCCCCCCCCCCCCCCCNS(=O)(=O)c1ccc(S(=O)(=O)F)cc1
inactive: [12] 94 % of control | [14] 94 % of control | [15] 89 % of control

Oc1c(-c2ccccc2)n[nH]c1-c1ccccc1
inactive: [16] 98 % of control | [17] 98 % of control | [18] 94 % of control

c1ccc(CC[n+]2ccccc2)cc1
inactive: dose: 10.0 mg/kg/injection, schedule: Q01DX001 (ip), vehicle: saline 106 % of control | dose: 20.0 mg/kg/injection, schedule: Q01DX001 (ip), vehicle: saline 94 % of control | dose: 40.0 mg/kg/injection, schedule: Q01DX001 (ip), vehicle: saline 95 % of control

COc1cc2c3c(c1)/C(=N\NC(N)=O)CCN3CCC2
inactive: [8] 98 % of control | [9] 103 % of control | [10] 108 % of control

OC1CCCCC1Cc1ccccc1 (centres undefined)
inactive: dose: 100.0 mg/kg/injection, schedule: Q04DX003 (ip), vehicle: gum acacia 102 % of control | dose: 200.0 mg/kg/injection, schedule: Q04DX003 (ip), vehicle: gum acacia 96 % of control | dose: 400.0 mg/kg/injection, schedule: Q04DX003 (ip), vehicle: gum acacia 98 % of control

C=CCCC(C)=O
inactive: dose: 100.0 mg/kg/injection, schedule: Q04DX002 (ip), vehicle: saline with Tween-80 102 % of control | dose: 200.0 mg/kg/injection, schedule: Q04DX002 (ip), vehicle: saline with Tween-80 102 % of control | dose: 400.0 mg/kg/injection, schedule: Q04DX002 (ip), vehicle: saline with Tween-80 102 % of control

CCOc1ccccc1CC(=O)O
inactive: [11] 88 % of control | [12] 92 % of control | [13] 98 % of control | [14] 87 % of control | dose: 400.0 mg/kg/injection, schedule: Q01DX009 (ip), vehicle: saline with Tween-80 101 % of control | [15] 92 % of control

Brc1ccc(-c2nc3ccccc3c(Br)c2Br)cc1
inactive: [6] 90 % of control | [7] 94 % of control | dose: 400.0 mg/kg/injection, schedule: Q01DX001 (ip), vehicle: saline 90 % of control

CC1=CC(c2ccccc2O)C(=C(C)C)CC1 (centres undefined)
inactive: [16] 96 % of control | [17] 93 % of control | [18] 89 % of control

O=C1CCCC1CNCc1ccccc1 (centres undefined)
inactive: dose: 75.0 mg/kg/injection, schedule: Q01DX001 (ip), vehicle: saline 103 % of control | dose: 150.0 mg/kg/injection, schedule: Q01DX001 (ip), vehicle: saline 100 % of control

CN(CCC(=O)c1ccccc1)CCC(=O)c1ccccc1
inactive: dose: 100.0 mg/kg/injection, schedule: Q01DX001 (ip), vehicle: saline with Tween-80 93 % of control | dose: 200.0 mg/kg/injection, schedule: Q01DX001 (ip), vehicle: saline with Tween-80 94 % of control

O=C1CCCCC1C(=O)C(F)(F)C(F)(F)C(F)(F)F (centres undefined)
inactive: dose: 90.0 mg/kg/injection, schedule: Q01DX Z (ip), vehicle: methylcellulose (MC) 97 % of control | dose: 150.0 mg/kg/injection, schedule: Q01DX Z (ip), vehicle: methylcellulose (MC) 102 % of control | dose: 222.0 mg/kg/injection, schedule: Q01DX Z (ip), vehicle: methylcellulose (MC) 97 % of control | dose: 333.0 mg/kg/injection, schedule: Q01DX Z (ip), vehicle: methylcellulose (MC) 102 % of control
